Results as given in patent US20240016941A1, “COMBINATION THERAPY” (priority 2020, published 2024).
“Also recorded” adds a separate entry of the source.

How the values were obtained:
[1] = target: T1, purified LasB protein from P. aeruginosa (Pseudomonas aeruginosa, UniProt P14756); assay: Fluorometric assay to determine Ki (purified LasB, Abz-Ala-Gly-Leu-Ala-p-Nitro-Benzyl-Amide substrate); assay type: biochemical
T1 construct: purchased Merck or Charles River Laboratories
In short: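 Purified P. aeruginosa LasB (10-140 ng/ml) with 250 μM Abz-Ala-Gly-Leu-Ala-p-nitrobenzylamide in Tris pH 7.4, 2.5 mM CaCl2, 0.01% Triton X100; fluorescence (340/415 nm) followed 30 min at 37 °C. IC50 from 2-fold series (0.0016-200 μM); Ki = IC50/(1+[S]/Km), Km 214 μM.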

[2] = target: T2, LasB elastase activity of dialysed supernatant from P. aeruginosa PAO1 (Pseudomonas aeruginosa, UniProt P14756); assay: Elastin Congo-Red assay to determine % inhibition (dialysed PAO1 supernatant); assay type: biochemical; conditions: read-out: Elastin hydrolysis % inhibition @ 25 μM inhibitor concentration
T2 construct: Culture supernatants are recovered by centrifugation and filtrated through a 0.22 μM filter; endogenous in cells; host or cells: P. aeruginosa strain PAO1, culture supernatant, filtered and dialysed
In short: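 End-point assay: dialysed PAO1 culture supernatant (in 50 mM Tris-HCl pH 7.4, 2.5 mM CaCl2) mixed with Elastin Congo-Red plus 0.01% Triton X100 and compound (routinely 50 to 1.56 μM), incubated overnight at 37 °C with shaking. Released dye read at OD495nm; % inhibition relative to DMSO and enzyme-free controls.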

purified LasB = purified LasB (Pseudomonas aeruginosa, UniProt P14756); assay: Inhibition of LasB-mediated hydrolysis of pro-IL-1β to IL-1β (FRET peptide); assay type: biochemical
Procedure: Hydrolysis of this FRET peptide was continuously monitored using a Victor multimode plate reader (Perkin Elmer) with excitation 355 nm and emission at 450 nm in the presence of varying concentrations of compounds of the invention. Inhibitory constants (Ki) were determined for certain compounds of the invention (at least 2 independent replicates) using a competitive inhibitor model.

PA (PAO1) = assay: Mouse model of Pseudomonas aeruginosa lung infection; assay type: in vivo; conditions: mice infected with wild-type PAO1, i.v. 1 h and 2 h post infection, 10 and 30 mg/kg, 24 hours post infection
Procedure: Mice were dosed by intranasal inoculation of PA (PAO1), then sacrificed after 24 hours. The extent of infection in the lung was quantified by bacterial load (CFU determination, colony forming units) and the levels of proinflammatory IL-1β. Statistical analysis on both readouts were performed by ANOVA with a Dunnett post-test.
Compounds were administered intravenously in a two-dose regimen (1 hour and 2 hours post infection) at two different doses (10 and 30 mg/kg).

[3] = target: T3, LasB from Pseudomonas aeruginosa (Pseudomonas aeruginosa, UniProt P14756); assay: Inhibition of LasB-mediated reduction of CFTR levels on airway cells (CFTR IP / Western blot); assay type: cell-based; conditions: NHBE airway cells, 100 nM LasB, 1, 10 or 100 μM compound, 24 hrs
T3 construct: host or cells: Exogenous enzyme applied apically to NHBE cells
Procedure: These experiments measured the amount of CFTR protein expressed in airway cells under normal conditions and also exposed to 100 nM LasB. […] The effect of adding increasing concentrations of a LasB inhibitor (here the compound of Example 23) on this reduction of CFTR by LasB was then examined.
Normal Human Bronchial Epithelial (NHBE) airway cells were expanded in Pneumacult™ EX medium on plastic PureCol™ coated dishes. Cells were plated on Millicell inserts (200K/insert) and differentiated at air-liquid interface for 26 days in modified Lonza Medium. Prior to treatment, cells were washed in 1×DPBS buffer.
Treatments were 100 nM LasB from Pseudomonas aeruginosa and 0, 1, 10, or 100 μM Example 23 for 24 hrs. A stock solution of LasB (200 nM) was prepared in buffer containing 50 mM Tris HCL pH 7.4, 2.5 mM CaCl2 and 0.01% TritonX-100. A 20 mM stock solution of Example 23 was made in DMSO and sonicated for 10 minutes. The DMSO stock was diluted, 10 μL into 990 μL buffer, to give a 200 μM solution. […]
The cells were lysed with 1% NP-40 lysis buffer containing protease inhibitors (1 μg/ml leupeptin, 2 μg/ml aprotinin, […] pefabloc, 121 μg/ml benzamidine, 3.5 μg/ml E64) and stored at −80° C. until IP/WB analysis. […] Protein bands were visualized using a Sapphire Biomolecular Imager (Azure Biosystems) and quantitated with AzureSpot Analysis Software.

F508del-CFTR cells = assay: Forskolin-activated CFTR response in CF-mutant human bronchial epithelial cells (membrane potential dye); assay type: cell-based; conditions: F508del-CFTR cells + 10 μM VX-809 + 0.01 μM LasB + 10 μM Example 53
Procedure: This example describes experiments showing that LasB impacted CFTR function in CF mutant cells can be mitigated by treatment with CFTR modulators and LasB inhibitors.
Wild Type human bronchial epithelial (HBE) cells and CF-mutant human bronchial epithelial cells (F508del-CFTR) are grown at 37° C. for 5 days and loaded onto 96-well plate cultures. The cells are loaded with blue membrane potential dye dissolved in chloride-free buffer. The plate is read in a fluorescence plate reader at 37° C. (excitation: 530 nm; emission; […]). CFTR is stimulated with forskolin.
A control signal defined as 100% transmission is obtained from WT human bronchial epithelial cells alone. A minor suppression of forskolin-activated CFTR response is expected for such WT cells in the presence of LasB.
Moderate suppression in the forskolin-activated CFTR response will be observed for CF-mutant cells. This moderate suppression will be reduced by addition of a CFTR modulator such as VX-809 (lumacaftor).
Substantial suppression in the forskolin-activated CFTR response is expected for CF-mutant cells in the presence of LasB, even following the addition of a CFTR modulator, due to the deleterious effect of LasB on expressed CFTR protein.

[4] = test system: PAO1 WT secretome (contains LasB); conditions: WT-SEC treated cells; cited from earlier work
[5] = test system: cells infected by tobramycin-resistance PA bacteria; conditions: combination with CFTR modulators, tobramycin-resistant PA; cited from earlier work

T3 sequence (P14756 198-498): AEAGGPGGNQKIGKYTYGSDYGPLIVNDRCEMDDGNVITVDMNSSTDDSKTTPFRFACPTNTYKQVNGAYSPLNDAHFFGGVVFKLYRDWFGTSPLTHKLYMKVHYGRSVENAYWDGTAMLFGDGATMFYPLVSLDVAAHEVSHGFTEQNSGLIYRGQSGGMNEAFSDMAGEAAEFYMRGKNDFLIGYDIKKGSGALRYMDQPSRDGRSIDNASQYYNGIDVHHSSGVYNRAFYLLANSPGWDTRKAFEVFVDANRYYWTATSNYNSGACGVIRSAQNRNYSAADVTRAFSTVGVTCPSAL
T1 sequence (P14756 198-498): as above
purified LasB, sequence (P14756 198-498): as above
T2 sequence (P14756 198-498): as above

Row | Structure (SMILES) | Ki [1] [µM] | inhibition at 25 µM [2] [%] | Ki (purified LasB) [µM] | extent of infection in the lung (CFU levels) (PA (PAO1)) | production and activation of IL-1β in the lung (PA (PAO1)) | CFTR protein level in LasB-exposed cells [3] | Maximum forskolin-activated response of CFTR channels compared to WT human bronchial epithelial cells (F508del-CFTR cells) | downregulation of trappin-2 and IL-6 by WT secretome [4] | restoration of CFTR function [5]
1 | COc1cc2sc(CNC(=O)C3(CC(=O)[O-])Cc4cc(F)c(F)cc4C3)nc2cc1OCCC[N+](C)(CCO)CCO [Example 23, 2-[2-[[5-[3-[bis(2-hydroxyethyl)-methyl-ammonio]propoxy]-6-methoxy-1,3-benzothiazol-2-yl]methylcarbamoyl]-5,6-difluoro-indan-2-yl]acetate] | < 0.05 | > 80 | 0.5 | reduced the extent of infection in the lung to the level of the LasB deleted mutant | inhibited the production and activation of IL-1β in mice infected by wild-type PA (PA01) at a similar level than the lasB deleted mutant | ameliorated by increasing concentrations of Example 23; also recorded: counteract the reduction in CFTR expression caused by LasB in a dose-related manner | – | – | –
2 | COc1cc2sc(CNC(=O)C3(CC(=O)[O-])Cc4ccccc4C3)nc2cc1OCCC[N+](C)(C)C [Example 53, 2-[2-[[6-methoxy-5-[3-(trimethylammonio)propoxy]-1,3-benzothiazol-2-yl]methylcarbamoyl]indan-2-yl]acetate] | < 0.05 | – | 0.7 | reduced the extent of infection in the lung to the level of the LasB deleted mutant | inhibited the production and activation of IL-1β in mice infected by wild-type PA (PA01) at a similar level than the lasB deleted mutant | – | forskolin-activated CFTR response being substantially restored; also recorded: Minor suppression of CFTR | – | –
3 | CC(C)C[C@H](NP(=O)(O)O[C@@H]1O[C@@H](C)[C@H](O)[C@@H](O)[C@H]1O)C(=O)N[C@@H](Cc1c[nH]c2ccccc12)C(=O)O [phosphoramidon] | – | – | – | – | – | – | – | prevented | –
4 | NC[C@H]1O[C@H](O[C@H]2[C@H](O)[C@@H](O[C@H]3O[C@H](CO)[C@@H](O)[C@H](N)[C@H]3O)[C@H](N)C[C@@H]2N)[C@H](N)C[C@@H]1O [tobramycin] | – | – | – | – | – | – | – | – | incapable of restoring CFTR function
